“And” between values parts separate entries of the source, which are not always exact repeats. Identical values can stand only once.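 Test compounds were applied to cells in 96-well plates for 48 hours at 5 doses. The concentration for 50% growth inhibition is given as GI50. The concentration for full growth arrest is given as TGI.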
Columns and labels:
Test in all cases: NCI-60 cell line screen, 48 h
[1] = test system: HCC-2998 colon
[2] = test system: HCT-116 colon
[3] = test system: HOP-62 NSCLC
[4] = test system: HT29 colon
[5] = test system: IGROV1 ovarian
[6] = test system: MALME-3M melanoma
[7] = test system: NCI-H522 lung
[8] = test system: OVCAR-3 ovarian
[9] = test system: SK-OV-3 ovarian
[10] = test system: TK-10 renal

Compound | TGI [1] | TGI [2] | TGI [3] | TGI [4] | TGI [5] | TGI [6] | TGI [7] | TGI [8] | TGI [9] | TGI [10] | GI50 [1] | GI50 [2] | GI50 [3] | GI50 [4] | GI50 [5] | GI50 [6] | GI50 [7] | GI50 [8] | GI50 [9] | GI50 [10]
COC1CC(OC)C(O)C(CO)O1 (configuration not stated) | > 100 µM | > 100 µM | > 100 µM | > 100 µM | > 100 µM | > 100 µM | > 100 µM | > 100 µM | > 100 µM | > 100 µM |  |  |  |  |  |  |  |  |  | 
CC#CC(=O)N1CC[C@@H](n2c(=O)n(-c3ccc(Oc4ccccc4)cc3)c3c(N)ncnc32)C1 | > 100 µM | 98.4 µM | > 100 µM | > 100 µM | 60.8 µM | > 100 µM | 92.7 µM | > 100 µM | > 100 µM | > 100 µM | 42.5 µM | 24.8 µM | 33.5 µM | 34.7 µM | 15.2 µM | 18 µM | 10.8 µM | 25.7 µM | 40.6 µM | 35 µM
C#Cc1cc(CN(CC(=O)OC(C)(C)C)CC(=O)OC(C)(C)C)nc(CN(CC(=O)OC(C)(C)C)CC(=O)OC(C)(C)C)c1 | 33.9 µM |  | 24.1 µM | > 100 µM | 26.7 µM | 20.9 µM | 4.22 µM | > 100 µM | 51 µM | > 100 µM |  |  |  |  |  |  |  |  |  | 
COC(=O)[C@@]12C=CC(=O)[C@H]3C[C@@H](C(C(C)C)C1)[C@]32OC (some centres not stated) | > 100 µM | > 100 µM | > 100 µM | > 100 µM | > 100 µM | > 100 µM |  | > 100 µM | > 100 µM | > 100 µM |  |  |  |  |  |  |  |  |  | 
COC(C)(C)[C@H](O)C(O)CC(C)[C@@H]1CCC23CC12CCC1[C@@]2(C)CCC(OC(C)=O)C(C)(C)C2CC(OC2OC(COC(C)=O)C(O)C(O)C2O)[C@]13C (some centres not stated) | 4.94 µM | 8.67 µM and 13.4 µM | 17.2 µM and 23.9 µM | 2.49 µM and 3.67 µM | 8.11 µM and 15 µM | 17.1 µM and 26 µM | 6.72 µM and 17.7 µM | 10.8 µM and 15.9 µM | 17.7 µM and 20.4 µM | 14.9 µM and 23.4 µM |  | 4.78 µM |  | 1.83 µM | 3.59 µM | 12.8 µM | 3.85 µM | 4.26 µM | 7.76 µM | 10.7 µM
CCOC(=O)c1cc(OC(=O)CC)c2c(OC)ccc(OC)c2c1 | > 100 µM | > 100 µM |  |  | > 100 µM | > 100 µM | > 100 µM |  | 91.6 µM | > 100 µM |  |  |  |  |  |  |  |  |  | 
CSC1(CC(=O)N2CCCCC2)C(=O)Nc2ccccc21 (configuration not stated) | > 100 µM | > 100 µM | > 100 µM | > 100 µM | > 100 µM | > 100 µM |  | > 100 µM | > 100 µM | > 100 µM |  |  |  |  |  |  |  |  |  | 
Fc1cccc(-c2[nH]nc3nc(Nc4cccnc4)sc23)c1 | > 100 µM | 51.1 µM | > 100 µM |  | > 100 µM | > 100 µM | > 100 µM | 13.5 µM | > 100 µM | > 100 µM | > 100 µM | 0.595 µM | > 100 µM |  | 11.7 µM | 39.8 µM | 13.7 µM | 1.68 µM | > 100 µM | 31.2 µM
CC(C)c1ccc2nc3ccc(C(=O)NCCN4CCN(c5ccccc5)CC4)cn3c(=O)c2c1 | > 100 µM | > 100 µM | > 100 µM | > 100 µM | > 100 µM |  | > 100 µM | > 100 µM | > 100 µM | > 100 µM |  |  |  |  |  |  |  |  |  | 
COc1ccc(C2C3=C(COC3=O)Oc3cc4c(cc32)OCO4)cc1 (configuration not stated) |  | > 100 µM | 51.7 µM | 22.5 µM | > 100 µM | > 100 µM |  | 41.3 µM | > 100 µM | > 100 µM |  |  |  |  |  |  |  |  |  | 
Cn1nc2ccccc2cc1=O | > 100 µM | > 100 µM | > 100 µM | > 100 µM | > 100 µM | > 100 µM |  | > 100 µM | > 100 µM | > 100 µM |  |  |  |  |  |  |  |  |  | 
COc1ccc(C2c3c(-c4ccccc4)nn(-c4ccccc4)c3Oc3ncn4nc(CC#N)nc4c32)cc1OC (configuration not stated) | > 100 µM | > 100 µM |  | > 100 µM | 41.7 µM and > 47 µM |  | > 100 µM and 15.7 µM | > 100 µM | > 100 µM and 17.9 µM | > 100 µM and 14.6 µM | > 100 µM and 22.6 µM | 40.7 µM and 9.55 µM |  | 99.9 µM and 14.8 µM | 16.8 µM and 5.81 µM |  | 40.2 µM and 4.62 µM | 75.4 µM and 10.3 µM |  | 27.8 µM and 3.31 µM
C/C=C/C1=CN2C(=O)c3cc(OC4OC(C)C(NC)C(C)(O)C4O)c(C)c(O)c3N=C[C@@H]2C1 (some centres not stated) |  | 11.9 µM |  | 10.2 µM |  |  | 0.302 µM |  | 12.4 µM |  |  |  |  |  |  |  | 0.119 µM | 0.203 µM |  | 0.326 µM
C/C(=C\c1ccn(-c2ccc(N)cc2F)n1)[C@@H]1C[C@@H]2O[C@]2(C)CCC[C@H](C)[C@H](O)[C@@H](C)C(=O)C(C)(C)[C@@H](O)CC(=O)O1 | > 10.6 µM | > 50 µM | > 50 µM | > 29 µM | > 50 µM |  | 0.171 µM | 0.159 µM | > 50 µM | > 50 µM | 0.0347 µM | 0.0169 µM | 0.0384 µM | 0.0173 µM | 0.0448 µM |  | 0.0255 µM | 0.0166 µM | 0.172 µM | 0.0939 µM
COc1cnc2c(c1)C(=O)c1c-2n(CCCNC(C)C)c(=O)c2cc([N+](=O)[O-])ccc12 | 0.269 µM |  | 0.34 µM | 1.01 µM | 1.43 µM | 0.356 µM | 0.158 µM | 0.247 µM | 0.201 µM | 0.318 µM | 0.109 µM |  | 0.0853 µM | 0.0364 µM | 0.115 µM | 0.118 µM | 0.0233 µM | 0.0824 µM | 0.0409 µM | 0.134 µM
CC1=CC(=O)c2ccc(C)cc2C1=O | 34.7 µM | 15.1 µM | 32 µM | > 100 µM | 30.8 µM |  | 18.5 µM | 29.1 µM | 30.5 µM | 34 µM |  |  |  |  |  |  |  |  |  | 
C=C[C@H]1C=Cc2c(OC)cccc2[C@@H]1COP1(=S)NC(C)C(c2ccccc2)O1 (some centres not stated) | > 100 µM | > 100 µM | > 100 µM | > 100 µM | > 100 µM |  | > 100 µM | > 100 µM | > 100 µM | > 100 µM |  |  |  |  |  |  |  |  |  | 

— PubChem BioAssay (NCI)
